From patent US20060178359A1, “Tricyclic compound, process for producing the same, and use” (priority 2003, published 2006)

Molecular target: T1, human CCR5 (Homo sapiens, UniProt P51681)
T1 construct: expressed in transfected cells
Assay: inhibition of [125I]-RANTES binding to CCR5/CHO cells
Conditions: test compound 1 μM, 100 pM [125I]-RANTES, room temperature, 40 minutes
Description: (1) Cloning of Human CCR5 Chemokine Receptor
Cloning of a CCR5 gene was conducted from human spleen cDNA by a PCR method. Using 0.5 ng of spleen cDNA (Toyobo Co., Ltd., QUICK-Clone cDNA) as a template, the PCR reaction was carried out in a DNA Thermal Cycler 480 (Perkin Elmer) using a TaKaRa EX Taq (Takara Shuzo Co., Ltd.) (reaction conditions: 30 cycles of treatments at 95° C. for 1 minute, at 60° C. for 1 minute, and at 75° C. for 5 minutes) by adding 25 pmol of primers, SEQ ID NO. 1 (sequence length: 34; sequence type: nucleic acid; number of chains: a single chain; topology: linear; sequence kind: other nucleic acid, synthetic DNA) described in Experimental Example (1) of WO 99/32100, and SEQ ID NO. 2 (sequence length: 34; sequence type: nucleic acid; number of chains: a single chain; topology: linear; sequence kind: other nucleic acid, synthetic DNA) described in Experimental Example (1) of WO 99/32100, respectively, which were prepared by referring to the base sequence of the CCR5 gene described by Samson et al. (Biochemistry 35 (11), 3362-3367 (1996)). The PCR products were subjected to agarose gel electrophoresis to collect DNA fragments of about 1.0 kb. Then, the CCR5 gene was cloned using an Original TA Cloning Kit (Funakoshi Co., Ltd.).
(2) Preparation of Plasmid for Expression of Human CCR5
The plasmids obtained above were digested with restriction enzymes XbaI (Takara Shuzo Co., Ltd.) and BamHI (Takara Shuzo Co., Ltd.), and subjected to agarose gel electrophoresis to collect DNA fragments of about 1.0 kb. The DNA fragments and a plasmid pcDNA3.1 (Funakoshi Co., Ltd.) for expression in animal cells, which was previously digested with XbaI and BamHI, were mixed and ligated by DNA Ligation Kit Ver. 2 (Takara Shuzo Co., Ltd.). Transformation of E. coli JM109 competent cells (Takara Shuzo Co., Ltd.) gave plasmid pCKR5.
(3) Introduction of the Plasmid for Expression of Human CCR5 into CHO-K1 Cells and Expression Thereof
CHO-K1 cells grown in a 750 ml tissue culture flask (Becton Dickinson) using Ham's F12 medium (Nihon Pharmaceutical Co., Ltd.) containing 10% fetal bovine serum (Lifetech Oriental) were collected from the flask by using 0.5 g/L trypsin-0.2 g/L EDTA (Lifetech Oriental). The cells were then washed with PBS (Lifetech Oriental), centrifuged (1000 rpm, 5 minutes), and suspended in PBS. Next, DNA was introduced into the cells using Gene Pulser (Bio-Rad Laboratories Inc.) under the following conditions. Namely, 8×10^6 cells and 10 μg of plasmid pCKR5 for expression of human CCR5 were added into a cuvette of a 0.4 cm-gap, and electroporation was carried out at an electric voltage of 0.25 kV and a capacitance of 960 μF. Subsequently, the cells were transferred into Ham's F12 medium containing 10% fetal bovine serum, and incubated for 24 hours. The cells were again collected, centrifuged, and then suspended in Ham's F12 medium containing 10% fetal bovine serum and Geneticin (Lifetech Oriental) at a concentration of 500 μg/ml. The suspension of cells was diluted to a concentration of 10^4 cells/ml, and inoculated on a 96-well plate (Becton Dickinson) to give Geneticin-resistant strains.
Subsequently, the Geneticin-resistant strains were cultured in the 96-well plate (Becton Dickinson), and then CCR5-expressing cells were selected from the resistant strains. […] The cells to which the ligand bound specifically, i.e., CCR5/CHO strains, were selected by measurement of radioactivity by γ-counter. […]

T1 sequence (P51681 whole entry): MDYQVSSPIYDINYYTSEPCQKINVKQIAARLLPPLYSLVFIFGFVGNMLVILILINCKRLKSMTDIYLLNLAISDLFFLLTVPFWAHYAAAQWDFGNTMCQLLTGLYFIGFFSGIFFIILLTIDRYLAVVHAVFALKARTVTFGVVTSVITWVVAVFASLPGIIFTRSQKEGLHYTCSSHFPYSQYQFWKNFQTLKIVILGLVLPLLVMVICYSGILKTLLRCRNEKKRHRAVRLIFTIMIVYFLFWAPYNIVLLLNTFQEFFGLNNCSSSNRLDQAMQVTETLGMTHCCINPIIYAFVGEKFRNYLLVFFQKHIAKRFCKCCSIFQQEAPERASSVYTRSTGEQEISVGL

Row | SMILES | Binding Inhibitory Ratio (%)
1 | CCCCOCCOc1ccc(-c2ccc3c(c2)C=C(C(=O)Nc2ccc([S+]([O-])Cc4cncn4CCC)cc2)CCC2CCCN32)cc1 (centres unmarked) [Compound 5, (Ss)-9-[4-(2butoxyethoxy)phenyl]-N-[4-[[(1-propyl-1H-imidazol-5-yl)methyl]sulfinyl]phenyl]-1,2,3,3a,4,5-hexahydropyrrolo[1,2-a][1]benzazocine-6-carboxamide] | 96%
2 | CCCCOCCOc1ccc(-c2ccc3c(c2)C=C(C(=O)Nc2ccc([S+]([O-])Cc4cncn4CCC)cc2)CCC2CCCCN32)cc1 (centres unmarked) [Compound 8, (Ss)-10-[4-(2-butoxyethoxy)phenyl]-N-[[4-[(1-propyl-1H-imidazol-5-yl)methyl]sulfinyl]phenyl]-2,3,4,4a,5,6-hexahydropyrido[1,2-a][1]benzazocine-6-carboxamide] | 97%
3 | CCCCOCCOc1ccc(-c2cnc3c(c2)C=C(C(=O)Nc2ccc([S@@+]([O-])Cc4cncn4CCC)cc2)CCC2CCCN32)cc1 (some centres unmarked) [Compound 15, (Ss)-3-[4-(2-butoxyethoxy)phenyl]-N-[4-[[(1-propyl-1H-imidazol-5-yl)methyl]sulfinyl]phenyl]-7,8,8a,9,10,11-hexahydropyrido[3,2-g]pyrrolo[1,2-a]azocine-6-carboxamide] | 100%
4 | CCCCOCCOc1ccc(-c2cnc3c(c2)C=C(C(=O)Nc2ccc([S@@+]([O-])Cc4cncn4CCC)cc2)CC[C@@H]2CCCN32)cc1 [Compound 16, (8aR,Ss)-3-[4-(2-butoxyethoxy)phenyl]-N-[4-[[(1-propyl-1H-imidazol-5-yl)methyl]sulfinyl]phenyl]-7,8,8a,9,10,11-hexahydropyrido[3,2-g]pyrrolo[1,2-a]azocine-6-carboxamide] | 94%
5 | CCCCOCCOc1ccc(-c2cnc3c(c2)C=C(C(=O)Nc2ccc([S@@+]([O-])Cc4cncn4CCC)cc2)CC[C@H]2CCCN32)cc1 [Compound 17, (8aS,Ss)-3-[4-(2-butoxyethoxy)phenyl]-N-[4-[[(1-propyl-1H-imidazol-5-yl)methyl]sulfinyl]phenyl]-7,8,8a,9,10,11-hexahydropyrido[3,2-g]pyrrolo[1,2-a]azocine-6-carboxamide] | 98%
